Source: patent publication US5057614A, “Substituted pyrroles” (Hoffmann-La Roche Inc., priority 1988, dated 1991)

Target: protein kinase C
Assay: inhibition of protein kinase C in vitro (protein kinase-induced incorporation of 32P from [γ-32P]ATP into histone)
Assay type: biochemical
Conditions: concentration reducing by 50% the protein kinase-induced incorporation of 32P from [γ-32P]ATP into histone
Text: The IC50 figures in the following Table, represent that concentration of test compound which reduces by 50% the protein kinase-induced incorporation of ^32 P from [γ-^32 P]ATP into histone.

Row | Structure (SMILES) | IC50
1 | Cn1cc(C2=C(c3cn(CCCNC(N)=N[N+](=O)[O-])c4ccccc34)C(=O)NC2=O)c2ccccc21 [3-(1-methyl-3-indolyl)-4-[1-[3-(2-nitroguanidino)propyl]-3-indolyl]-1H-pyrrole-2,5-dione] | 25 nM
2 | Cn1cc(C2=C(c3cn(CCCN=C=S)c4ccccc34)C(=O)NC2=O)c2ccccc21 [3-[1-(3-isothiocyanatopropyl)-3-indolyl]-4-(1-methyl-3-indolyl)-1H-pyrrole-2,5-dione] | 8 nM
3 | Cc1cccc(C2=C(c3cn(C)c4ccccc34)C(=O)NC2=O)c1 [3-(1-methyl-3-indolyl)-4-(3-methylphenyl)-1H-pyrrole-2,5-dione] | 1000 nM

More lines, now with the values ahead:

Row | IC50 | Structure (SMILES)
4 | 600 nM | Cn1cc(C2=C(c3cn(C)c4ccc(N)cc34)C(=O)NC2=O)c2ccccc21 [3-(5-amino-1-methyl-3-indolyl)-4-(1-methyl-3-indolyl)-1H-pyrrole-2,5-dione]
5 | 500 nM | Cn1cc(C2=C(c3cn(CCC(N)=O)c4ccccc34)C(=O)NC2=O)c2ccccc21 [3-[1-(2-carbamoylethyl)-3-indolyl]-4-(1-methyl-3-indolyl)-1H-pyrrole-2,5-dione]
6 | 10 nM | Cn1cc(C2=C(c3cn(CCCSC(=N)N)c4ccccc34)C(=O)NC2=O)c2ccccc21 [3-[1-[3-(amidinothio)propyl]-3-indolyl]-4-(1-methyl-3-indolyl)-1H-pyrrole-2,5-dione]
